Biological target: T1, TLR7 (Homo sapiens, UniProt Q9NYK1)
T1 construct: host or cells: HEK-Blue cells (human HEK) co-expressing TLR7 and an NF-kB/AP1-inducible SEAP reporter
T1 sequence (Q9NYK1 27-1049): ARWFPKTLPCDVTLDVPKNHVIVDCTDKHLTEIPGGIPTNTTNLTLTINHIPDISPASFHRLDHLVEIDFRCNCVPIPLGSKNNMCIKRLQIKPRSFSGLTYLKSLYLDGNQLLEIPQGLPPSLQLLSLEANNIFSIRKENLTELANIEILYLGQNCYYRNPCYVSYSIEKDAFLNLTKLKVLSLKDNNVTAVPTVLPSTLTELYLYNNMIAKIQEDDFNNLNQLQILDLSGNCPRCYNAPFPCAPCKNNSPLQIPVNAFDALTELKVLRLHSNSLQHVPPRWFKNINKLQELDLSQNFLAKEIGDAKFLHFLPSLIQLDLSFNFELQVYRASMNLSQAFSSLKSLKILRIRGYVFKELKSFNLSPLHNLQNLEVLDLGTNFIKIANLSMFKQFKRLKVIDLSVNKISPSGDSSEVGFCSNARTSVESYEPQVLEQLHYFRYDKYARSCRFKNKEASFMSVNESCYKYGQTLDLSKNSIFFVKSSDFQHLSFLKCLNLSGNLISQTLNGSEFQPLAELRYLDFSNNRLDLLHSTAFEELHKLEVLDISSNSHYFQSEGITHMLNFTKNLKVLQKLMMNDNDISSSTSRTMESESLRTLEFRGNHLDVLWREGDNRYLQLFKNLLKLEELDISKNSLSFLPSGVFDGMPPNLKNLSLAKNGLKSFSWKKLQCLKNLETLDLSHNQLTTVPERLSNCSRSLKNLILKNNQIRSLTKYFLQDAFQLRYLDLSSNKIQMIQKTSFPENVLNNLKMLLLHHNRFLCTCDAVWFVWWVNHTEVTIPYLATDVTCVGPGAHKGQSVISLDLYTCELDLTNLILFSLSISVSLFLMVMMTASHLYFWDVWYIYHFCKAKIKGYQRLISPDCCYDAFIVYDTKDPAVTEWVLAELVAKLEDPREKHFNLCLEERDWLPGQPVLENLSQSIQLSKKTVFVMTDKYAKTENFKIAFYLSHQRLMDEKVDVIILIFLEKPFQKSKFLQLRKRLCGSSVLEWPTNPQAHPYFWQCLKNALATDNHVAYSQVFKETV
Experiment: In vitro human TLR7 binding reporter assay (HEK-Blue, NF-kB/AP1-inducible SEAP)
Format: cell-based
Conditions: activity range symbols
Outline: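 Reporter cells are plated at 15,000 per well and rested 24 h. Next day, test compounds or DMSO are dispensed, followed by 18 h incubation at 37 °C, 5% CO2.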

Question: `CCC(=O)N(CC)Cc1nc2c(N)nc3cc(-c4ccn[nH]4)ccc3c2n1CC` [Compound 473, N-{[4-amino-1-ethyl-7-(1H-pyrazol-5-yl)-1H-imidazo[4,5-c]quinolin-2-yl]methyl}-N-ethylpropanamide] was tested. Which EC50 did it give?
Answer: > 100 µM

Question: For `CCN(Cc1nc2c(N)nc3cc(-c4ccn[nH]4)ccc3c2n1CC)C(C)=O` [Compound 474, N-{[4-amino-1-ethyl-7-(1H-pyrazol-5-yl)-1H-imidazo[4,5-c]quinolin-2-yl]methyl}-N-ethylacetamide], which EC50 is on record?
Answer: > 100 µM

Question: How did the EC50 turn out when `CCC(=O)N(CC)Cc1nc2c(N)nc3cc(-c4ccn[nH]4)ccc3c2n1CCO` [Compound 475, N-{[4-amino-1-(2-hydroxyethyl)-7-(1H-pyrazol-5-yl)-1H-imidazo[4,5-c]quinolin-2-yl]methyl}-N-ethylpropanamide] was run?
Answer: > 100 µM

Question: Which EC50 does the source give for `CCN(Cc1nc2c(N)nc3cc(-n4cccn4)ccc3c2n1CCO)C(C)=O` [Compound 476, N-{[4-amino-1-(2-hydroxyethyl)-7-(1H-pyrazol-1-yl)-1H-imidazo[4,5-c]quinolin-2-yl]methyl}-N-ethylacetamide] here?
Answer: > 100 µM

Question: Which EC50 does the source give for `CCNCc1nc2c(N)nc3cc(-n4cccn4)ccc3c2n1CCO` [Compound 477, 2-[4-amino-2-[(ethylamino)methyl]-7-(1H-pyrazol-1-yl)-1H-imidazo[4,5-c]quinolin-l-yl]ethan-1-ol] here?
Answer: > 100 µM

Question: Which EC50 does the source give for `CCC(=O)N(CC)Cc1nc2c(N)nc3cc(-n4cccn4)ccc3c2n1CCO` [Compound 478, N-{[4-amino-1-(2-hydroxyethyl)-7-(1H-pyrazol-1-yl)-1H-imidazo[4,5-c]quinolin-2-yl]methyl}-N-ethylpropanamide] here?
Answer: > 100 µM

Question: How did the EC50 turn out when `CCN(Cc1nc2c(N)nc3cc(-n4cccn4)ccc3c2n1CC)C(C)=O` [Compound 479, N-{[4-amino-1-ethyl-7-(1H-pyrazol-1-yl)-1H-imidazo[4,5-c]quinolin-2-yl]methyl}-N-ethylacetamide] was run?
Answer: > 100 µM

Question: For `CCC(=O)N(CC)Cc1nc2c(N)nc3cc(-c4cccs4)ccc3c2n1CC` [Compound 480, N-{[4-amino-1-ethyl-7-(thiophen-2-yl)-1H-imidazo[4,5-c]quinolin-2-yl]methyl}-N-ethylpropanamide], which EC50 is on record?
Answer: > 100 µM

Question: `CCC(=O)N(CC)Cc1nc2c(N)nc3cc(-n4cccn4)ccc3c2n1CC` [Compound 481, N-{[4-amino-1-ethyl-7-(1H-pyrazol-1-yl)-1H-imidazo[4,5-c]quinolin-2-yl]methyl}-N-ethylpropanamide] was tested. Which EC50 did it give?
Answer: > 100 µM

Question: How did the EC50 turn out when `CCN(Cc1nc2c(N)nc3cc(-c4cccs4)ccc3c2n1CCO)C(C)=O` [Compound 482, N-{[4-amino-1-(2-hydroxyethyl)-7-(thiophen-2-yl)-1H-imidazo[4,5-c]quinolin-2-yl]methyl}-N-ethylacetamide] was run?
Answer: > 100 µM
